From patent publication US20200261391A1, “METHODS OF REDUCING THE RISK OF A CARDIOVASCULAR EVENT IN A STATIN-TREATED SUBJECT BY INCREASING SERUM AND PLASMA EPA AND DPA LEVELS” (Amarin Pharmaceuticals Ireland Limited, priority 2019, published 2020)

Tested on: TG, non-HDL-C, LDL-C, HDL-C, apo B, hsCRP
Assay: REDUCE-IT trial: fasting lipid, lipoprotein and inflammatory marker data over time
Format: in vivo, human
Experimental: Fasting Lipid Profile: The fasting lipid panel included: TG, TC, LDL-C, HDL-C, non-HDL-C, and VLDL-C. At all visits, LDL-C was calculated using the Friedewald equation. At Visit 1 and Visit 1.1 direct LDL-C were used if at the same visit TG>400 mg/dL (4.52 mmol/L). These LDL-C values were used for the evaluation of the LDL-C inclusion criterion (LDL-C qualifying measurements for randomization) and for the assessment of changes in the statin therapy when LDL-C was not at goal. […] In addition, irrespective of the TG levels, at Visit 2 (0 Months of Follow-up, baseline) and at Visit 4 (12 Months of Follow-up), LDL-C were measured by preparative ultracentrifugation. These preparative ultracentrifugation LDL-C measurements were used in the statistical analysis including the calculation of the percent change from baseline (1 year versus baseline). Hopkins LDL-C was calculated for each visit.
Biomarkers Assays: The biomarker assays included: hsCRP, Apo B and hsTnT.
The fasting lipid panel was tested at Screening (Visit 1 or Visit 1.1), Randomization visit (Visit 2; Day 0), Visit 3 (Day 120; ˜4 Months) and all other follow-up visits including the last visit. For change from baseline to 1 year preparative ultracentrifugation measurements for LDL-C were analyzed, unless this value was missing. If the LDL-C preparative ultracentrifugation values were missing, then another LDL-C value was used, with prioritization of values obtained from LDL-C Direct measurements, followed by LDL-C derived by the Friedewald calculation (only for subjects with TG<400 mg/dL), and finally LDL-C derived using the calculation published by Hopkins University investigators (Martin S S, Blaha M J, Elshazly M B, et al. Comparison of a novel method vs the Friedewald equation for estimating low-density lipoprotein cholesterol levels from the standard lipid profile. JAMA. 2013; 310:2061-8.). In addition, change from baseline to day 120 in LDL-C utilizing Friedewald's and Hopkins methods was analyzed, using the arithmetic mean of LDL-C obtained at Visit 2 (Day 0) and the preceding Visit 1 (or Visit 1.1). If one of these values was missing, the single available LDL-C value was used. LDL-C according to Hopkins was calculated at each visit.
The randomization visit was considered Baseline. If a baseline value was not available from the randomization visit, then the latest screening value was used. For measurements of lipids, lipoproteins and inflammatory markers, the change and the percent change were summarized at each visit. Since these biomarkers are typically not normally distributed, the Wilcoxon rank-sum test was used for treatment comparisons of the percent change from baseline, and medians and quartiles were provided for each treatment group. The medians of the differences between the treatment groups and 95% CIs were estimated with the Hodges-Lehmann method. In addition, shift-tables were generated as appropriate.

Structure (SMILES): CC/C=C\C/C=C\C/C=C\C/C=C\C/C=C\CCCC(=O)OCC [icosapent ethyl, eicosapentaenoic acid ethyl ester]
- Apo B Median Observed Value (Year 2): 80.0 mg/dL
- HDL-C Median % Change from Baseline (Year 2): 0.0%
- HDL-C Median Absolute Change from Baseline (Year 2): 0.0 mg/dL
- HDL-C Median Observed Value (Year 2): 40.0 mg/dL
- LDL-C Hopkins Median % Change from Baseline (Year 2): −0.2%
- LDL-C Hopkins Median Absolute Change from Baseline (Year 2): -0.1 mg/dL
- LDL-C Hopkins Median Observed Value (Year 2): 85.5 mg/dL
- Log hsCRP Median % Change from Baseline (Year 2): −21.8%
- Log hsCRP Median Absolute Change from Baseline (Year 2): −0.1 mg/L
- Log hsCRP Median Observed Value (Year 2): 0.6 mg/L
- Non-HDL-C Median % Change from Baseline (Year 2): −3.1%
- Non-HDL-C Median Absolute Change from Baseline (Year 2): -3.5 mg/dL
- Non-HDL-C Median Observed Value (Year 2): 113.0 mg/dL
- Triglycerides Median % Change from Baseline (Year 2): −18.9%
- Triglycerides Median Absolute Change from Baseline (Year 2): -38.5 mg/dL
- Triglycerides Median Observed Value (Year 2): 173.0 mg/dL
- hsCRP Median % Change from Baseline (Year 2): −13.9%
- hsCRP Median Absolute Change from Baseline (Year 2): -0.2 mg/L
- hsCRP Median Observed Value (Year 2): 1.8 mg/L
- Apo B Between Group Difference Median % Change from Baseline (Year 2, vs placebo): −9.7%
- Apo B Between Group Difference Median Absolute Change from Baseline (Year 2, vs placebo): -8.0 mg/dL
- HDL-C Between Group Difference Median % Change from Baseline (Year 2, vs placebo): −4.6%
- HDL-C Between Group Difference Median Absolute Change from Baseline (Year 2, vs placebo): -2.0 mg/dL
- LDL-C Hopkins Between Group Difference Median % Change from Baseline (Year 2, vs placebo): −11.1%
- LDL-C Hopkins Between Group Difference Median Absolute Change from Baseline (Year 2, vs placebo): -9.4 mg/dL
- Log hsCRP Between Group Difference Median % Change from Baseline (Year 2, vs placebo): −22.5%
- Log hsCRP Between Group Difference Median Absolute Change from Baseline (Year 2, vs placebo): −0.4 mg/L
- Non-HDL-C Between Group Difference Median % Change from Baseline (Year 2, vs placebo): −12.5%
- Non-HDL-C Between Group Difference Median Absolute Change from Baseline (Year 2, vs placebo): -14.5 mg/dL
- Triglycerides Between Group Difference Median % Change from Baseline (Year 2, vs placebo): −19.7%
- Triglycerides Between Group Difference Median Absolute Change from Baseline (Year 2, vs placebo): -43.8 mg/dL
- hsCRP Between Group Difference Median % Change from Baseline (Year 2, vs placebo): −39.9%
- hsCRP Between Group Difference Median Absolute Change from Baseline (Year 2, vs placebo): -0.9 mg/L
- HDL-C Median % Change from Baseline (Year 3): 0.0%
- HDL-C Median Absolute Change from Baseline (Year 3): 0.0 mg/dL
- HDL-C Median Observed Value (Year 3): 40.0 mg/dL
- LDL-C Hopkins Median % Change from Baseline (Year 3): −1.2%
- LDL-C Hopkins Median Absolute Change from Baseline (Year 3): -1.0 mg/dL
- LDL-C Hopkins Median Observed Value (Year 3): 84.6 mg/dL
- Non-HDL-C Median % Change from Baseline (Year 3): −4.2%
- Non-HDL-C Median Absolute Change from Baseline (Year 3): -4.8 mg/dL
- Non-HDL-C Median Observed Value (Year 3): 112.0 mg/dL
- Triglycerides Median % Change from Baseline (Year 3): −21.7%
- Triglycerides Median Absolute Change from Baseline (Year 3): -44.0 mg/dL
- Triglycerides Median Observed Value (Year 3): 167.0 mg/dL
- HDL-C Between Group Difference Median % Change from Baseline (Year 3, vs placebo): −3.8%
- HDL-C Between Group Difference Median Absolute Change from Baseline (Year 3, vs placebo): -1.5 mg/dL
- LDL-C Hopkins Between Group Difference Median % Change from Baseline (Year 3, vs placebo): −10.4%
- LDL-C Hopkins Between Group Difference Median Absolute Change from Baseline (Year 3, vs placebo): -8.7 mg/dL
- Non-HDL-C Between Group Difference Median % Change from Baseline (Year 3, vs placebo): −12.4%
- Non-HDL-C Between Group Difference Median Absolute Change from Baseline (Year 3, vs placebo): -14.5 mg/dL
- Triglycerides Between Group Difference Median % Change from Baseline (Year 3, vs placebo): −20.3%
- Triglycerides Between Group Difference Median Absolute Change from Baseline (Year 3, vs placebo): -45.5 mg/dL
- HDL-C Median % Change from Baseline (Year 4): 1.0%
- HDL-C Median Absolute Change from Baseline (Year 4): 0.5 mg/dL
- HDL-C Median Observed Value (Year 4): 40.5 mg/dL
- LDL-C Hopkins Median % Change from Baseline (Year 4): −0.6%
- LDL-C Hopkins Median Absolute Change from Baseline (Year 4): -0.5 mg/dL
- LDL-C Hopkins Median Observed Value (Year 4): 83.6 mg/dL
- Non-HDL-C Median % Change from Baseline (Year 4): −4.2%
- Non-HDL-C Median Absolute Change from Baseline (Year 4): -5.0 mg/dL
- Non-HDL-C Median Observed Value (Year 4): 110.5 mg/dL
- Triglycerides Median % Change from Baseline (Year 4): −21.7%
- Triglycerides Median Absolute Change from Baseline (Year 4): -42.5 mg/dL
- Triglycerides Median Observed Value (Year 4): 163.0 mg/dL
- HDL-C Between Group Difference Median % Change from Baseline (Year 4, vs placebo): −3.9%
- HDL-C Between Group Difference Median Absolute Change from Baseline (Year 4, vs placebo): -1.5 mg/dL
- LDL-C Hopkins Between Group Difference Median % Change from Baseline (Year 4, vs placebo): −10.6%
- LDL-C Hopkins Between Group Difference Median Absolute Change from Baseline (Year 4, vs placebo): -8.9 mg/dL
- Non-HDL-C Between Group Difference Median % Change from Baseline (Year 4, vs placebo): −12.0%
- Non-HDL-C Between Group Difference Median Absolute Change from Baseline (Year 4, vs placebo): -14.0 mg/dL
- Triglycerides Between Group Difference Median % Change from Baseline (Year 4, vs placebo): −17.4%
- Triglycerides Between Group Difference Median Absolute Change from Baseline (Year 4, vs placebo): -38.0 mg/dL
- HDL-C Median % Change from Baseline (Year 5): 0.0%
- HDL-C Median Absolute Change from Baseline (Year 5): 0.0 mg/dL
- HDL-C Median Observed Value (Year 5): 41.0 mg/dL
- LDL-C Hopkins Median % Change from Baseline (Year 5): −0.7%
- LDL-C Hopkins Median Absolute Change from Baseline (Year 5): -0.8 mg/dL
- LDL-C Hopkins Median Observed Value (Year 5): 82.2 mg/dL
- Non-HDL-C Median % Change from Baseline (Year 5): −4.4%
- Non-HDL-C Median Absolute Change from Baseline (Year 5): -5.0 mg/dL
- Non-HDL-C Median Observed Value (Year 5): 109.0 mg/dL
- Triglycerides Median % Change from Baseline (Year 5): −20.0%
- Triglycerides Median Absolute Change from Baseline (Year 5): -38.0 mg/dL
- Triglycerides Median Observed Value (Year 5): 158.0 mg/dL
- HDL-C Between Group Difference Median % Change from Baseline (Year 5, vs placebo): −3.0%
- HDL-C Between Group Difference Median Absolute Change from Baseline (Year 5, vs placebo): -1.5 mg/dL
- LDL-C Hopkins Between Group Difference Median % Change from Baseline (Year 5, vs placebo): −8.0%
- LDL-C Hopkins Between Group Difference Median Absolute Change from Baseline (Year 5, vs placebo): -6.6 mg/dL
- Non-HDL-C Between Group Difference Median % Change from Baseline (Year 5, vs placebo): −9.9%
- Non-HDL-C Between Group Difference Median Absolute Change from Baseline (Year 5, vs placebo): -11.0 mg/dL
- Triglycerides Between Group Difference Median % Change from Baseline (Year 5, vs placebo): −16.7%
- Triglycerides Between Group Difference Median Absolute Change from Baseline (Year 5, vs placebo): -33.5 mg/dL
- reduction in hsCRP (in vivo): 40%
